Where two headings read alike, the source gives them in different places.
What was measured:
[1] = system: GFP-A549 human lung cancer cells
Experimental: Experimental animals were held in nose-only air-tight tubes for designated time intervals.
Inhalation treatment was resumed 2 days post-surgery and continued for 6 weeks when mice were euthanized, and blood and lung tissues were collected. Luminosity of the GFP-A549 tumors was measured and the lungs were weighed.

[2] = for Total drug levels (PS V plus its metabolites): plasma
[3] = design: unit not given beside the values; details: mouse, in vivo, inhaled or intranasal
[4] = system: lung cancer; details: curcumin as a single agent, pre-clinical models of lung cancer; cited from earlier work

In the case of `CCOP(=O)(OCC)OCCCCOC(=O)CC1=C(C)/C(=C/c2ccc([S+](C)[O-])cc2)c2ccc(F)cc21` (stereo not drawn) [PS V, phospho-sulindac], the “tumor size by luminosity” value ([1]; at sacrifice, Mean±SEM, control = 19.85±4.33, p < 0.001) was 5.05±2.97, the “tumor size by lung weight” value ([1]; at sacrifice, Mean±SEM, control = 385.7±85.2 mg, p < 0.001) was 204.4 ± 39.4 mg and the death rate ([1]; end of the study, aerosol of 50 mg/mL PS V for 8 min, control group 40 %, p < 0.03) was “less than 10%”. The “level of intact PS V in the lungs” value ([2]; inhalational, 6.5 mg/kg body weight) was > 20 nmol/g, the “level of intact PS V in the lungs” value ([2]; oral administration, 150 mg/kg body weight) was < 2 nmol/g and the “Total drug levels (PS V plus its metabolites)” value ([2]; after inhalation treatment, 6.5 mg/kg) was 17 µM. For the same compound, the “Total drug levels (PS V plus its metabolites)” value ([2]; after oral administration, 150 mg/kg) was 348 µM.
In the case of `CC1=C(CC(=O)O)c2cc(F)ccc2/C1=C\c1ccc([S+](C)[O-])cc1` (stereo not drawn) [Sulindac, sulindac], the AUC [3] was 30.1.
In the case of `COc1cc(/C=C/C(=O)CC(=O)/C=C/c2ccc(O)c(OC)c2)ccc1O` [curcumin], the efficacy [4] is given as < 30%.

Reference: patent EP2711006A1, “Product Comprising a Nicotine-Containing Material and an Anti-Cancer Agent” (Rigas, Basil, priority 2012, dated 2014)
